From US8263791B2, “Method and reagent for protein analysis” (National Institute of Advanced Industrial Science and …, priority 2008, dated 2012)
Several values for one entry are separate records, joined by “and”; a condition that tells them apart may be missing. Equal values may be shown once.

What was measured:
[1] = Measurement of maximum absorption wavelength and maximum fluorescence wavelength; type: physicochemical; conditions: 25 μg/mL in purified water
Experimental: Compound 1 and Compound 2 were separately dissolved in purified water at a concentration of 25 μg/mL. The absorption spectra at a wavelength ranging from 200 nm to 800 nm and the fluorescence spectra at a wavelength ranging from 450 nm to 600 nm were measured. The absorption spectra were measured using U3310 (Hitachi High-Technologies Corporation) and the fluorescence spectra were measured using RF-1500 (Shimadzu Corporation).

[2] = tested on: Protein Standard Mixture IV (ovotransferrin, albumin, ovalbumin, carboanhydrase, myoglobin, cytochrome C); assay: Protein detection on SDS-PAGE gel by staining after electrophoresis, varying solutions (I)/(II); conditions: 100 μg/mL
Experimental: (§1) Two (2) mL of a stock buffer (a mixture of purified water (4.2 mL), 0.5 M Tris-hydrochloric acid buffer (pH 8.6) (1.0 mL), glycerol (0.8 mL), 100 g/L sodium dodecyl sulfate (1.6 mL), and 2-mercaptoethanol (0.4 mL)) was added to 2 mg of a commercially available molecular weight marker (Protein Standard Mixture IV; Merck & Co., Inc.). The mixture was heated in boiling water for 2 minutes and then cooled. Thirty (30) μL each of the resultant was dispensed in a 0.5-mL microtube and then cryopreserved at −80° C. until the use thereof. A sample diluent (a mixture of purified water (3.8 mL), 0.5 M Tris-hydrochloric acid buffer (pH 8.6) (1.0 mL), glycerol (0.8 mL), 100 g/L sodium dodecyl sulfate (1.6 mL), and 5 g/L bromophenol blue (0.8 mL)) was added to the thawed molecular weight marker, so that a dilution series with protein concentrations ranging from 0.4 ng/μL to 200 ng/μL was prepared.
(§2) The marker contained, in terms of mass, equal amounts of ovotransferrin (78 kDa), albumin (66.3 kDa), ovalbumin (42.7 kDa), carboanhydrase (30 kDa), myoglobin (16.9 kDa), and cytochrome C (12.4 kDa).
(§3) • Electrophoresis apparatus: RAPIDAS-Mini-Slab electrophoresis chamber AE6450 (ATTO Corporation) • Polyacrylamide gel: Multigel II mini 10/20 (13W) (COSMO BIO Co., Ltd.) • Buffer for electrophoresis: 27.2 mM Tris (hydroxymethyl) aminomethane, 192 mM glycine, 3.5 mM Sodium dodecyl sulfate (pH 8.3) • Fluorescence imaging analyzer: Light capture II (ATTO Corporation)
Light source: green LED (center wavelength: 525 nm)
Cut filter: R-60 (550 nm).
(§4) Each sample of the dilution series prepared in (1) above was applied to a gel at 5 μL/well (lane 1: 167 ng of protein/band; lane 2: 83.3 ng/band; lane 3: 41.7 ng/band; lane 4: 20.8 ng/band; lane 5: 10.4 ng/band; lane 6: 5.2 ng/band; lane 7: 2.6 ng/band; lane 8: 1.3 ng/band; lane 9: 0.7 ng/band; and lane 10: 0.4 ng/band) and then subjected to electrophoresis with constant current of 30 mA for 45 minutes.
(§5) After electrophoresis, the gel was immediately immersed in a solution (I) (purified water, 1% Tween80 aqueous solution, or 1% Tween20 aqueous solution) for a predetermined period of time (20 minutes or 30 minutes). Subsequently, the gel was transferred to another container and then a buffer (purified water/25 mM phosphate buffer (pH 2.5)/methanol=45/45/10 (v/v)) in which Compound 1 (100 μg/mL) had been dissolved was added. After being left to stand for 10 minutes, the gel was transferred to another container and then immersed in a solution (II) (purified water, 1% Tween80 aqueous solution, or 1% Tween20 aqueous solution) for decoloration.

[3] = tested on: Protein Standard Mixture IV (ovotransferrin, albumin, ovalbumin, carboanhydrase, myoglobin, cytochrome C); assay: Evaluation of protein detection using Compound 1 and Compound 2 (staining after electrophoresis, Tween80); set-up: key to Detection: +: All bands could be detected.; −: At least one band could not be detected
Experimental: as §1, §2, §3, §4
(§6) Protein detection was carried out using Compound 1 and Compound 2 synthesized in Example 1 under analysis conditions described in Example 3. After electrophoresis, the gel was first immersed in 1% Tween80 aqueous solution for 20 minutes and then immersed in a buffer containing Compound 1 (60 μg/mL) or Compound 2 (60 μg/mL) for 10 minutes. Subsequently, the gel was transferred to and immersed in a container containing a 1% Tween80 aqueous solution for 30 minutes. […] The total time needed for treatment was 60 minutes. The gel was analyzed using a fluorescence imaging analyzer. When Compound 1 was used, bands containing 2.6 ng or more of proteins could be detected. Compared with the result, the detection limit was 20 ng in the case of Compound 2.

[4] = tested on: Protein Standard Mixture IV (ovotransferrin, albumin, ovalbumin, carboanhydrase, myoglobin, cytochrome C); assay: Protein detection with staining carried out during electrophoresis; set-up: key to Detection: +: All bands could be detected.; −: At least one band could not be detected; conditions: compound 15 μg/mL in electrophoresis buffer
Experimental: Compound 1 or Compound 2 were dissolved in a buffer for electrophoresis (27.2 mM Tris (hydroxymethyl)aminomethane, 192 mM glycine, and 3.5 mM sodium dodecyl sulfate (pH 8.3)) at a concentration of 15 μg/mL. With the use of the above buffer, the other conditions identical to those described in Example 3 were employed to carry out electrophoresis. After completion of electrophoresis, the gel was transferred to a container containing 1% Tween80 aqueous solution, left to stand for 40 minutes, and then analyzed using a fluorescence imaging analyzer. When Compound 1 was used, bands containing 5.2 ng or more of a protein could be detected.

[5] = Water solubility / precipitation in the staining solution; type: physicochemical
Experimental: as §5, §6
After electrophoresis, the gel was immediately immersed in distilled water for 20 to 30 minutes. Subsequently, the gel was transferred to another container and then a staining solution (distilled water:methanol=1:1 (v/v)) in which Compound 3 (100 μg/mL) had been dissolved was added. After 30 minutes of immersion, the gel was transferred to another container and then immersed in a wash solution (water:methanol=90:10 (v/v)) for decoloration. The gel was observed using a fluorescence imaging analyzer.

N#CC(C#N)=C1C=C(/C=C/c2ccccc2S(=O)(=O)[O-])OC(/C=C/c2ccccc2S(=O)(=O)[O-])=C1.[Na+].[Na+] [Compound 1, 2,2′-(1E,1′E)-2,2′-(4-(dicyanomethylene)-4H-pyrane-2,6-diyl)bis(ethene-2,1-diyl)bis(sodium benzenesulfonate)salt]
Excitation wavelength for maximum fluorescence [1]: 444 nm
Maximum absorption wavelength [1]: 293 nm and 380 nm
Maximum fluorescence wavelength [1]: 516 nm
Detection sensitivity ([2]; Conditions 1: solution (I) purified water, solution (II) purified water): 5 ng
Detection sensitivity ([2]; Conditions 2: solution (I) Tween80, solution (II) purified water): 5 ng
Detection sensitivity ([2]; Conditions 3: solution (I) purified water, solution (II) Tween80): 5 ng
Detection sensitivity ([2]; Conditions 4: solution (I) Tween80, solution (II) Tween80): 5 ng
Detection sensitivity ([2]; Conditions 5: solution (I) Tween20, solution (II) Tween20): 10 ng
Relationship between protein concentration of each band and fluorescence intensity ([3]; FIG. 2, all proteins of the marker): no differences due to protein type were observed
Detection ([3]; Lane 1, protein 167 ng/band, compound 60 μg/mL): +
Detection ([3]; Lane 2, protein 83.3 ng/band, compound 60 μg/mL): +
Detection ([3]; Lane 3, protein 41.7 ng/band, compound 60 μg/mL): +
Detection ([3]; Lane 4, protein 20.8 ng/band, compound 60 μg/mL): +
Detection ([3]; Lane 5, protein 10.4 ng/band, compound 60 μg/mL): +
Detection ([3]; Lane 6, protein 5.2 ng/band, compound 60 μg/mL): +
Detection ([3]; Lane 7, protein 2.6 ng/band, compound 60 μg/mL): +
Detection ([3]; Lane 8, protein 1.3 ng/band, compound 60 μg/mL): −
Detection ([3]; Lane 9, protein 0.7 ng/band, compound 60 μg/mL): −
Detection ([3]; Lane 10, protein 0.4 ng/band, compound 60 μg/mL): −
Detection limit (protein per band that could be detected) ([3]; compound 60 μg/mL, 1% Tween80 before and after staining): ≥ 2.6 ng
Detection ([4]; Lane 1, protein 167 ng/band): +
Detection ([4]; Lane 2, protein 83.3 ng/band): +
Detection ([4]; Lane 3, protein 41.7 ng/band): +
Detection ([4]; Lane 4, protein 20.8 ng/band): +
Detection ([4]; Lane 5, protein 10.4 ng/band): +
Detection ([4]; Lane 6, protein 5.2 ng/band): +
Detection ([4]; Lane 7, protein 2.6 ng/band): +
Detection ([4]; Lane 8, protein 1.3 ng/band): −
Detection ([4]; Lane 9, protein 0.7 ng/band): −
Detection ([4]; Lane 10, protein 0.4 ng/band): −
Protein per band that could be detected ([4]; 1% Tween80 40 minutes): ≥ 5.2 ng
Precipitation in the solutions during staining ([5]; 60 μg/mL in buffer, Example 4): no precipitation
Precipitation in the solutions during staining ([5]; 100 μg/mL in purified water/25 mM phosphate buffer (pH 2.5)/methanol=45/45/10): no precipitation
